Results as given in patent publication US20260327211A1, “MODULATORS OF A POTASSIUM CHANNEL AND OF TRPV1 CHANNEL AND USES THEREOF” (Bsense Bio Therapeutics Ltd., priority 2023, published 2026).
Like-named read-outs stand apart in the source and are kept apart here. Blank lines part the entries; values can stand above or below the compound they belong to.

What was measured:
[1] = Ligand-lipophilicity efficiency (LLE); format: physicochemical
Description: Ligand-lipophilicity efficiency (LLE) is a parameter used in drug design and drug discovery to evaluate the quality of research compounds, linking potency and lipophilicity.
To follow LLE values, the following equation was used: […]
Suitable LLE value are typically higher than 3 or higher than 5.

opioid mu receptor = target: T1, opioid mu receptor (Homo sapiens, UniProt P35372); experiment: Functional selectivity panel, opioid mu receptor; format: biochemical
T1 construct: Eurofins DiscoverX, USA (assay provider)
Method: (§1) A broad panel of 78 recombinant targets was tested for pharmacologic activity in vitro through a variety of functional assays (Eurofins DiscoverX, USA), as part of the National Institute of Neurological Disorders and Stroke (NINDS) Preclinical Screening Platform for Pain (PSPP) program. The biological targets for the in vitro profiling have been selected based on avoiding opioid receptor stimulation and targets known to be associated with adverse events or targeted by drugs of abuse. […] For each test, a reference compound was evaluated at the target of interest as a positive control.

rats = experiment: Accelerating rotarod; format: in vivo, rat
Method: Rotarod: There were two days of training in which rats were trained at a constant speed of 5 RPM for 180 seconds. After each fall the rats were placed back on the rotating rod until 180 seconds were reached. Then, the actual test started on study day 0 using the accelerating rotarod methodology. Animals were placed on the rod, which was accelerated 5-40 RPM over 180 seconds. Acceleration rate (0.19 RPM/second) was calculated from delta velocity (v2−v1) divided by delta time (t2−t1). The time to the first fall of each animal was documented, in addition to the distance and speed.

CYP2C19 = target: T2, CYP2C19 (Homo sapiens, UniProt P33261); experiment: CYP inhibition / time-dependent inhibition, CYP2C19_S-Mephenytoin; format: in vitro ADME; conditions: role: inhibitor
T2 construct: pre-incubation of the human liver microsomes with the test compound; tissue Corning; host or cells: human liver microsomes
Method: (§2) The time-dependent inactivation potency of the test compound to CYP enzymatic activities was assessed by the pre-incubation of the human liver microsomes with the test compound in the presence and absence of NADPH, followed by the incubation with the discrete marker substrates, as follows.
(§3) Pre-incubation with human liver microsomes (HLMs): The TDI inactivation potency on CYP enzymatic activities was evaluated through pre-incubation with HLMs (Corning). A liver microsome mixture at a concentration of 0.1 mg/mL, and the test compound at 8 different concentrations (0, 0.05, 0.165, 0.5, 1.65, 5.0, 16.5, or 50.0 μM) was warmed at 37° C. for 10 minutes. Concurrently, a set of known time-dependent inactivators was also prepared in duplicate for comparison. Following this, NADPH (1.0 mM) was added to one group (Group 1), and an equal volume of potassium phosphate buffer to the second group (Group 2), marking the beginning of a 30-minute pre-incubation at 37° C.
(§4) Incubation: After pre-incubation, the marker substrate, or marker substrate plus NADPH was added to the mixture, thereby initiating the incubation. The duration of the incubation was dependent on the type of CYP isoform being evaluated. For example, with the CYP3A isoform, the mixture was incubated over 3 minutes utilizing midazolam as the marker substrate (2.0 μM), verapamil as the standard inactivator (3.5 μM).
(§5) Termination of Reaction: Following the incubation, ice-cooled acetonitrile containing the internal standard (IS) was added to halt the reactions. Metabolites generated from the marker substrates were then measured via LC-MS/MS, assessed based on peak area ratios of the analyte to IS.

CYP1A2 = target: T3, CYP1A2 (Homo sapiens, UniProt P05177); experiment: CYP inhibition / time-dependent inhibition, CYP1A2_Phenacetin; format: in vitro ADME; conditions: role: inhibitor
T3 construct: pre-incubation of the human liver microsomes with the test compound; tissue Corning; host or cells: human liver microsomes
T3 sequence (P05177 1-516): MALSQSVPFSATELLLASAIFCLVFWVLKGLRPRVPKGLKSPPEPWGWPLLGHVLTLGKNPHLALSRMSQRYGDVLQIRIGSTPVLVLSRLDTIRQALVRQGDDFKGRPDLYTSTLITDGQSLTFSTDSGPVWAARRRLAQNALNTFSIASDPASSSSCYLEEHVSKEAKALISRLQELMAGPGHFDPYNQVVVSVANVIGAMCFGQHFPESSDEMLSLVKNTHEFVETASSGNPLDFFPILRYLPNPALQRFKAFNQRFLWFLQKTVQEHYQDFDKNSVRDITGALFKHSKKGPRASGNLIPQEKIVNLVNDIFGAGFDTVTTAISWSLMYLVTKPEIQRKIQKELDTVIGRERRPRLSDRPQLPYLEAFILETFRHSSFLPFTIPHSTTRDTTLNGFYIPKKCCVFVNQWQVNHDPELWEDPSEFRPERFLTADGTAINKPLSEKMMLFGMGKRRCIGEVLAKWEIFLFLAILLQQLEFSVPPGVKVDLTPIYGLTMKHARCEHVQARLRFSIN
Method: as §2, §3, §4, §5

kappa opioid receptors = target: T4, kappa opioid receptors (Homo sapiens, UniProt P41145); experiment: Functional selectivity panel, kappa opioid receptors; format: biochemical
T4 construct: Eurofins DiscoverX, USA
Method: as §1

CYP2C8 = target: T5, CYP2C8 (Homo sapiens, UniProt P10632); experiment: CYP inhibition / time-dependent inhibition, CYP2C8_Amodiaquine; format: in vitro ADME; conditions: role: inhibitor
T5 construct: pre-incubation of the human liver microsomes with the test compound; tissue Corning; host or cells: human liver microsomes
T5 sequence (P10632 1-490): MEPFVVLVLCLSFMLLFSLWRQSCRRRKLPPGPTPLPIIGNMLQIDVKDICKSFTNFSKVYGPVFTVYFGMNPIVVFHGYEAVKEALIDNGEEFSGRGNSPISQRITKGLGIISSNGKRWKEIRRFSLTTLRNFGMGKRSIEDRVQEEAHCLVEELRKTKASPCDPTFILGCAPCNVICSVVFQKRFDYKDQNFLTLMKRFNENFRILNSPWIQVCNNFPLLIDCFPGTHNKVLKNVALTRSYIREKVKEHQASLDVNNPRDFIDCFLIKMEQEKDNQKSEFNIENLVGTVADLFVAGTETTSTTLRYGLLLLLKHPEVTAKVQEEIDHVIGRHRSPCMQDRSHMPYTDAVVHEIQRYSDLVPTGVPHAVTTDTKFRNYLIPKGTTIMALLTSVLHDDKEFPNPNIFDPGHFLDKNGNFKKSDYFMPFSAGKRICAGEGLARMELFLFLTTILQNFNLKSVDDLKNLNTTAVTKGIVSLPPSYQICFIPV
Method: as §2, §3, §4, §5

adrenergic β2 = target: T6, adrenergic β2 (Homo sapiens, UniProt P07550); experiment: Functional selectivity panel, adrenergic β2; format: biochemical
T6 construct: Eurofins DiscoverX, USA
Method: as §1

[2] = CYP inhibition / time-dependent inhibition, CYP3A4_Midazolam; format: in vitro ADME, human; conditions: human, liver microsomes, role: inhibitor
Method: as §2, §3, §4, §5

T2 sequence (P33261 whole entry): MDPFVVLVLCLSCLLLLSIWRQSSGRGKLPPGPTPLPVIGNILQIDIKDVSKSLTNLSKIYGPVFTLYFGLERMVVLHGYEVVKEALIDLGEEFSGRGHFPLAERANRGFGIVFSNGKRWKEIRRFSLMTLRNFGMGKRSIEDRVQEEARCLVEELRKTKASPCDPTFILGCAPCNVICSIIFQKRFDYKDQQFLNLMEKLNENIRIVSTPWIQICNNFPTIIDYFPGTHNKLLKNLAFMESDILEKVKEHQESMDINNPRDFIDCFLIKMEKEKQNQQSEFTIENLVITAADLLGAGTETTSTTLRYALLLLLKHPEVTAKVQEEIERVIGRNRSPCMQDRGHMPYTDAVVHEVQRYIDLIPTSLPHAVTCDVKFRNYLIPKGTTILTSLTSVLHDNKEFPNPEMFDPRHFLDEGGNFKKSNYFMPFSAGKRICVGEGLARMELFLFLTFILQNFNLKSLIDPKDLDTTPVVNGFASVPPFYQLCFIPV
T1 sequence (P35372 whole entry): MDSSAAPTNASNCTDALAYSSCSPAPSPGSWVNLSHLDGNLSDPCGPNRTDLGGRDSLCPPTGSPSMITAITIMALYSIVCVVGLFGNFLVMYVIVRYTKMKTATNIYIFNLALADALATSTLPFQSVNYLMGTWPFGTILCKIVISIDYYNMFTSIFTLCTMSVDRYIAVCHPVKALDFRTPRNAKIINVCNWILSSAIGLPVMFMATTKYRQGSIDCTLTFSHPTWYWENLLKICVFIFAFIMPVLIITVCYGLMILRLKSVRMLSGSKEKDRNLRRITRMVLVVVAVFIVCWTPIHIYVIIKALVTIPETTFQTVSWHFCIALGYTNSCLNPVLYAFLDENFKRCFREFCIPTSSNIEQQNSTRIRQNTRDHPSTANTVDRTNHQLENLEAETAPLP
T4 sequence (P41145 whole entry): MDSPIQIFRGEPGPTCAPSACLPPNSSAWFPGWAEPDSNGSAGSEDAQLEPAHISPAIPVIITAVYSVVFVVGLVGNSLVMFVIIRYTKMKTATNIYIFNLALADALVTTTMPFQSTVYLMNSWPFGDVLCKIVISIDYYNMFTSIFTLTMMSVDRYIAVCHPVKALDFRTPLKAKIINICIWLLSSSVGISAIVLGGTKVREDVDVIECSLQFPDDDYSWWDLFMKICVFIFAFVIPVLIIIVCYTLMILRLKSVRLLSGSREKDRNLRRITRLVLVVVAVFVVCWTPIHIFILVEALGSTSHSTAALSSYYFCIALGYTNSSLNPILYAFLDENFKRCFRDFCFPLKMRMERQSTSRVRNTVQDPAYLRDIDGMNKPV
T6 sequence (P07550 whole entry): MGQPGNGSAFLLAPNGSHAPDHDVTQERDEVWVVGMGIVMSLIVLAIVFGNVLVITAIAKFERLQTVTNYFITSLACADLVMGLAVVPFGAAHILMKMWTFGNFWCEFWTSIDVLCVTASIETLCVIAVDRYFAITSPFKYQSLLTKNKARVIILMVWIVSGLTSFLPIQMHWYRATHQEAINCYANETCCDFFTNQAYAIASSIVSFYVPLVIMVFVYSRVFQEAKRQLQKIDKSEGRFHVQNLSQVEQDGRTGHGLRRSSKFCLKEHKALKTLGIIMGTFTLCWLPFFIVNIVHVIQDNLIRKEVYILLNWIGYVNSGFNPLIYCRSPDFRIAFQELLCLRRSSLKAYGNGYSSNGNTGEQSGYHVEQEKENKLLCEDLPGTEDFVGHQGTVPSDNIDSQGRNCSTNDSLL

- LLE [1]: 2.1
SMILES: Cc1cn(-c2ccc(F)c(CC(=O)NCC(C)(C)O)c2)c2c(Cl)cc(Cl)cc12 [Compound 421]

- IC50 (opioid mu receptor): 6 µM
- IC50 (CYP2C19; (+)NADPH pre-incubation, substrate S-mephenytoin, read-out: IC50 (+)NADPH CYP2C19_S-Mephenytoin): 18.5 µM
- IC50 (CYP2C19; (−)NADPH pre-incubation, substrate S-mephenytoin, read-out: IC50 (−)NADPH CYP2C19_S-Mephenytoin): 15.6 µM
- IC50 (CYP1A2; (+)NADPH pre-incubation, substrate phenacetin, read-out: IC50 (+)NADPH CYP1A2_Phenacetin): > 50 µM
- IC50 (CYP1A2; (−)NADPH pre-incubation, substrate phenacetin, read-out: IC50 (−)NADPH CYP1A2_Phenacetin): > 50 µM
- EC50 (kappa opioid receptors; PAM): 7 µM
- IC50 (CYP2C8; (+)NADPH pre-incubation, substrate amodiaquine, read-out: IC50 (+)NADPH CYP2C8_Amodiaquine): 16.5 µM
- IC50 (CYP2C8; (−)NADPH pre-incubation, substrate amodiaquine, read-out: IC50 (−)NADPH CYP2C8_Amodiaquine): 14.3 µM
- IC50 (adrenergic β2; read-out: adrenergic β2 IC50): 4 µM
- IC50 ([2]; (+)NADPH pre-incubation, substrate midazolam 2.0 μM, read-out: IC50 (+)NADPH CYP3A4_Midazolam): 19.5 µM
- IC50 ([2]; (−)NADPH pre-incubation, substrate midazolam 2.0 μM, read-out: IC50 (−)NADPH CYP3A4_Midazolam): 30.5 µM
SMILES: O=C(Cc1cncc(-n2cc(Cl)c3cc(Cl)cc(Cl)c32)c1)N[C@@H]1COC[C@H]1O [Compound 661]
- Rotarod performance (rats; 20 and 50 mg/kg PO, 1 and 4 hour post-dose): did not affect rotarod performance

SMILES: O=C(Cc1nccc(-n2cc(Cl)c3cc(Cl)cc(Cl)c32)n1)NC1COCC1O (stereo not drawn) [Compound 760]
- Effect on Opioid mu (opioid mu receptor; up to 10 micromolar): no effect
- Rotarod (rats; up to 300 mg/kg oral): displayed safety potential at up to 300 mg/kg oral dosing
- IC50 (CYP2C19; Table 9, read-out: CYP inhibition IC50 CYP2C19): > 50 µM
- IC50 (CYP1A2; Table 9, read-out: CYP inhibition IC50 CYP1A2): > 50 µM
- Effect on Opioid kappa (kappa opioid receptors; up to 10 micromolar): no effect
- IC50 (CYP2C8; Table 9, read-out: CYP inhibition IC50 CYP2C8): 49.2 µM
- IC50 (adrenergic β2; antagonist, read-out: IC/EC50 Adrenergic β2-antagonist): 46 µM
- IC50 ([2]; Table 9, substrate midazolam, read-out: CYP inhibition IC50 CYP3A-Midazolam): > 50 µM

- LLE [1]: 1.6
- LLE Kv 7.2/7.3 [1]: 0.8
- LLE TRPV1 [1]: −0.35
SMILES: CC(C)c1cc(Cl)cc(Cl)c1Nc1ccc(F)c(CC(=O)NCC(C)(C)O)c1 [NH91, reference compound]
